Some test systems named below: Bacillus megaterium Bm11; Staphylococcus capitis 1; Vibrio vulnificus 204; Vibrio alginolyticus; Escherichia coli DC2; Candida albicans C627; Escherichia coli UB1005; Proteus vulgaris.
Common to all, as to test: ≥ marks a high value that may be exact or a test limit, other limits are often not marked, values filed in µg/mL are converted to µM
In assay [1] the test system is Yersinia pseudotuberculosis YPIII.
Assay [2] concerns Staphylococcus aureus Cowan 1.
Assay [3] concerns Escherichia coli ATCC 25922.
Assay [4] has as its system Candida albicans ATCC 10231.
Assay [5] has as its system Enterococcus faecalis BCRC 10066.
The subject of assay [6] is Aeromonas hydrophila BCRC 13018.
Assay [7] deals with Streptococcus agalactiae BCRC 10787.
For assay [8], the system named is Streptococcus agalactiae 819.
Assay [9] deals with Pseudomonas aeruginosa ATCC 19660.
In assay [10] the test system is Aeromonas salmonicida 97-4.
The test system of assay [11] is Escherichia coli CGSC 4908.
In assay [12] the test system is Pseudomonas aeruginosa Z61.
The subject of assay [13] is Salmonella enterica serovar typhimurium MS7953s.
Assay [14] deals with Staphylococcus epidermidis C621.
The subject of assay [15] is Salmonella enterica subsp. enterica serovar Typhimurium ATCC 14028s.
For assay [16], the system named is Aeromonas salmonicida 99-1.
Assay [17] relates to Pseudomonas aeruginosa K799.
Assay [18] concerns Staphylococcus aureus C623.
The test system of assay [19] is Bacillus megaterium KCTC 1096.
Assay [20] deals with Trichosporon beigelii KCTC 7251.
Assay [21] concerns Staphylococcus aureus KCTC 1621.
In assay [22] the test system is Pseudomonas aeruginosa KCTC 1637.
Assay [23] deals with Candida albicans KCTC 7121.
Assay [24] concerns Escherichia coli KCTC 1682.
The subject of assay [25] is Bacillus subtilis KCTC 1918.
Assay [26] has as its system Aspergillus flavus KCTC 7375.
Assay [27] has as its system Fusarium oxysporum KCTC 6084.

Values after ≈ are worked out from the molar mass of the structure shown.

As usually defined, the MIC is the smallest concentration in the dilution series that meets the test's criterion for growth inhibition. Read a low MIC as a more susceptible organism. Turning to `CC[C@H](C)[C@H](NC(=O)CNC(=O)[C@H](CO)NC(=O)[C@H](CC(C)C)NC(=O)[C@@H](NC(=O)[C@H](CCCN=C(N)N)NC(=O)CNC(=O)[C@@H](NC(=O)[C@H](C)NC(=O)[C@@H]1CCCN1C(=O)[C@H](CC(C)C)NC(=O)[C@@H](N)Cc1ccccc1)[C@@H](C)CC)C(C)C)C(=O)N[C@@H](CC(C)C)C(N)=O` [FLPAIGRVLSGIL], the MIC is not below 40 µM in [1]; 5 µM (≈ 6.77 µg/mL) in the assay with Bacillus megaterium Bm11; not below 40 µM in assay [2]; more than 40 µM in [3]; 10 µM (≈ 13.5 µg/mL) in [4]; 20 µM (≈ 27.1 µg/mL) in the assay on Staphylococcus capitis 1.

In the case of `CC[C@H](C)[C@H](NC(=O)CNC(=O)[C@H](CO)NC(=O)[C@H](CC(C)C)NC(=O)[C@H](C)NC(=O)[C@H](CCCN=C(N)N)NC(=O)CNC(=O)[C@@H](NC(=O)[C@H](CC(C)C)NC(=O)[C@@H]1CCCN1C(=O)[C@H](CC(C)C)NC(=O)[C@@H](N)Cc1ccccc1)[C@@H](C)CC)C(=O)N[C@@H](CC(C)C)C(N)=O` [FLPLIGRALSGIL], the MIC was not below 40 µM in assay [1]; 5 µM (≈ 6.84 µg/mL) with Bacillus megaterium Bm11; 20 µM (≈ 27.4 µg/mL) in assay [2]; more than 40 µM in [3]; 10 µM (≈ 13.7 µg/mL) in assay [4]; 20 µM (≈ 27.4 µg/mL) in the assay with Staphylococcus capitis 1.

For the compound `CC[C@H](C)[C@H](NC(=O)[C@H](C)NC(=O)[C@H](CC(=O)O)NC(=O)[C@H](Cc1c[nH]c2ccccc12)NC(=O)[C@@H](NC(=O)[C@H](CS)NC(=O)[C@H](CCC(=O)O)NC(=O)CN)[C@@H](C)CC)C(=O)N[C@@H](Cc1ccccc1)C(=O)N[C@@H](Cc1cnc[nH]1)C(=O)NCC(=O)N[C@@H](C)C(=O)N[C@@H](CCCCN)C(=O)N[C@@H](Cc1cnc[nH]1)C(=O)N[C@@H](Cc1ccccc1)C(=O)N[C@@H](CC(C)C)C(=O)N[C@@H](Cc1cnc[nH]1)C(=O)N[C@@H](CCCN=C(N)N)C(=O)N[C@@H](CC(C)C)C(=O)N[C@H](C(=O)N[C@@H](CC(N)=O)C(=O)N1CCC[C@H]1C(N)=O)C(C)C` [GECIWDAIFHGAKHFLHRLVNP], the MIC (in assay [5]; in assay [6]; in assay [7]; in [8]; in the assay with Vibrio vulnificus 204; in [9]) was 7.62 µM (≈ 19.5 µg/mL) in each case. This compound showed an MIC against Vibrio alginolyticus of 7.62 µM (≈ 19.5 µg/mL).

Take `CC[C@H](C)[C@H](NC(=O)[C@H](Cc1cnc[nH]1)NC(=O)[C@H](CCCCN)NC(=O)[C@H](C)NC(=O)[C@H](C)NC(=O)[C@H](Cc1cnc[nH]1)NC(=O)[C@H](CCCNC(=N)N)NC(=O)CNC(=O)[C@H](Cc1cnc[nH]1)NC(=O)[C@H](CCCCN)NC(=O)[C@H](Cc1ccccc1)NC(=O)[C@@H](NC(=O)[C@H](CO)NC(=O)CNC(=O)[C@H](Cc1c[nH]c2ccccc12)NC(=O)CN)[C@@H](C)CC)C(=O)NCC(=O)N[C@@H](Cc1cnc[nH]1)C(=O)N[C@@H](C)C(=O)N[C@@H](C)C(=O)N[C@H](C(=O)N[C@@H](CC(N)=O)C(=O)N[C@@H](Cc1cnc[nH]1)C(=O)N[C@@H](Cc1ccc(O)cc1)C(=O)N[C@@H](CC(C)C)C(C)=O)C(C)C` [GWGSIFKHGRHAAKHIGHAAVNHYL]: the MIC in assay [10] amounted to 1.45 µM (≈ 4 µg/mL); in assay [11] it was 1.45 µM (≈ 4 µg/mL); in assay [12] it was 1.45 µM (≈ 4 µg/mL); in [13] it was 1.45 µM (≈ 4 µg/mL); in [14], 23.1 µM (≈ 64 µg/mL); with Escherichia coli DC2, 0.723 µM (≈ 2 µg/mL). In addition, the MIC in assay [15] was 23.1 µM (≈ 64 µg/mL); in assay [16] it was 1.45 µM (≈ 4 µg/mL); with Candida albicans C627, 11.6 µM (≈ 32 µg/mL); in assay [17] it was 5.79 µM (≈ 16 µg/mL); in the assay with Escherichia coli UB1005, 1.45 µM (≈ 4 µg/mL); in [18], 11.6 µM (≈ 32 µg/mL).

In the case of `CC[C@H](C)[C@H](NC(=O)[C@H](CCCCN)NC(=O)[C@H](CCCCN)NC(=O)[C@H](Cc1ccccc1)NC(=O)[C@H](Cc1c[nH]c2ccccc12)NC(=O)[C@@H](N)CCCCN)C(=O)N1CCC[C@H]1C(=O)N[C@@H](CCCCN)C(=O)N[C@@H](Cc1ccccc1)C(=O)N[C@@H](CC(C)C)C(=O)N[C@@H](Cc1cnc[nH]1)C(=O)N[C@@H](CC(C)C)C(=O)N[C@@H](C)C(=O)N[C@@H](CCCCN)C(=O)N[C@@H](CCCCN)C(=O)N[C@@H](Cc1ccccc1)C(N)=O` [KWFKKIPKFLHLAKKF], the MIC in [19] is 1.56 µM (≈ 3.21 µg/mL); in assay [20], not below 50 µM; in assay [21], 3.12 µM (≈ 6.43 µg/mL); in [22] it was 1.56 µM (≈ 3.21 µg/mL); in the assay with Proteus vulgaris, 3.12 µM (≈ 6.43 µg/mL); in assay [23], not below 50 µM. Besides, the MIC was 12.5 µM (≈ 25.7 µg/mL) in [24], 0.78 µM (≈ 1.61 µg/mL) in [25], not below 100 µM in assay [26] and not below 100 µM in [27].

As for `CC[C@H](C)[C@H](NC(=O)[C@H](CCCCN)NC(=O)[C@H](CCCCN)NC(=O)[C@H](Cc1ccccc1)NC(=O)[C@H](CC(C)C)NC(=O)[C@H](CCCCN)NC(=O)[C@@H](N)Cc1c[nH]c2ccccc12)C(=O)N1CCC[C@H]1C(=O)N[C@@H](CCCCN)C(=O)N[C@@H](Cc1ccccc1)C(=O)N[C@@H](CC(C)C)C(=O)N[C@@H](Cc1cnc[nH]1)C(=O)N[C@@H](CC(C)C)C(=O)N[C@@H](C)C(=O)N[C@@H](CCCCN)C(=O)N[C@@H](CCCCN)C(=O)N[C@@H](Cc1ccccc1)C(N)=O` [WKLFKKIPKFLHLAKKF], the MIC in assay [19] was 1.56 µM (≈ 3.39 µg/mL); in [20] it was not below 50 µM; in [21] it was 3.12 µM (≈ 6.79 µg/mL); in assay [22] it was 1.56 µM (≈ 3.39 µg/mL); against Proteus vulgaris, 1.56 µM (≈ 3.39 µg/mL); in assay [23], not below 50 µM. Also, the MIC is 6.25 µM (≈ 13.6 µg/mL) in assay [24], 0.78 µM (≈ 1.69 µg/mL) in [25], not below 50 µM in assay [26] and not below 50 µM in assay [27].

For the compound `CC[C@H](C)[C@H](NC(=O)[C@H](CCCNC(=N)N)NC(=O)[C@H](CCCNC(=N)N)NC(=O)[C@H](CC(C)C)NC(=O)[C@@H](N)Cc1c[nH]c2ccccc12)C(=O)NCC(=O)N[C@@H](CCCCN)C(=O)NCC(=O)N[C@H](C(=O)N[C@@H](CCCCN)C(=O)N[C@H](C(=O)N[C@H](C(=O)NCC(=O)NCC(=O)N[C@@H](C)C(=O)N[C@@H](C)C(=O)N[C@@H](CC(C)C)C(=O)N[C@@H](CC(=O)O)C(=O)N[C@@H](Cc1cnc[nH]1)C(=O)N[C@@H](CC(C)C)C(N)=O)[C@@H](C)CC)[C@@H](C)CC)C(C)C` [WLRRIGKGVKIIGGAALDHL], the MIC was not below 58.9 µM in assay [10]; 29.4 µM (≈ 64 µg/mL) in assay [11]; 14.7 µM (≈ 32 µg/mL) in [12]; 29.4 µM (≈ 64 µg/mL) in assay [13]; 29.4 µM (≈ 64 µg/mL) in assay [14]; 29.4 µM (≈ 64 µg/mL) against Escherichia coli DC2. The MIC was 29.4 µM (≈ 64 µg/mL) in [15]; not below 58.9 µM in [16]; 29.4 µM (≈ 64 µg/mL) against Candida albicans C627; 29.4 µM (≈ 64 µg/mL) in [17]; 29.4 µM (≈ 64 µg/mL) in the assay on Escherichia coli UB1005; 29.4 µM (≈ 64 µg/mL) in assay [18].

The values above are taken from DBAASP.
